According to patent US20080119498A1, “Therapeutic Agent for Pruritus Comprising P38 Map Kinase Inhibitor as the Active Ingredient” (priority 2004, published 2008):

Columns and labels:
[1] = tested on: histamine-induced eye scratching behavior; experiment: Ocular pruritus inhibition activity to histamine-induced models; type: in vivo, guinea pig; conditions: for number of eye scratching times in comparison with the control (in words): histamine-induced guinea pig model, instilled at 0.1%; for Eye scratching behavior inhibition ratio / Number of eye scratching times: male Hartley guinea pigs, 0.1% (w/v) instilled twice, 10 μl per eye; for Eye scratching behavior inhibition ratio: 30 minutes after instillation of 1.0% histamine, versus control; for Number of eye scratching times: average for 30 minutes after instillation of 1.0% histamine, control 6.1
Method: Compound A was dissolved in a 5.0% Tween 80/physiological saline solution at a concentration of 0.1% (w/v), and Compound B was suspended in a 5.0% Tween 80/physiological saline solution at a concentration of 0.1% (w/v), whereby the respective test compound solutions were prepared.
Each test compound solution was instilled into both eyes of 5-week-old male Hartley guinea pigs in an amount of 10 μl per eye. At 15 minutes thereafter, each test compound solution of the same concentration was instilled again (twice in total). As a control, a 5.0% Tween 80/physiological saline solution was used.
After 15 minutes from the second instillation of each test compound solution, a physiological saline solution in which histamine was dissolved at 1.0% (w/v) was instilled into both eyes of the above guinea pigs in an amount of 10 μl per eye to induce eye scratching behavior.
The behavior of the guinea pigs after the instillation of histamine was videotaped, and the ocular pruritus was evaluated for each eye by counting the number of times of a series of behaviors of scratching the eye with the hind paws. In Table 1, the average of the number of eye scratching times for 30 minutes after the instillation of histamine and the average of the eye scratching behavior inhibition ratio are shown. Each group consisted of 8 eyes.
(§1) Eye scratching behavior inhibition ratio (%)=100−(number of eye scratching times for test compound)/(number of eye scratching times for control)×100

[2] = tested on: platelet activating factor-induced eye scratching behavior; experiment: Ocular pruritus inhibition activity to platelet activating factor-induced models; type: in vivo, guinea pig; conditions: for Eye scratching behavior inhibition ratio / Number of eye scratching times: male Hartley guinea pigs, 10 μl per eye; for Eye scratching behavior inhibition ratio: 30 minutes after instillation of 0.1% platelet activating factor, versus control; for Number of eye scratching times: average for 30 minutes after instillation of 0.1% platelet activating factor, control 7.1
Method: as §1
Platelet activating factor-induced ocular pruritus evaluation models were prepared in accordance with the published method of Kato et al. (J. Ocul. Pharmacol. Ther. 2003; 19: 315-324). Compound C was dissolved in ultrapure water at a concentration of 0.01% or 0.1% (w/v), and each of the resulting solutions was instilled into both eyes of 5-week-old male Hartley guinea pigs in an amount of 10 μl per eye. At 15 minutes thereafter, each solution of Compound C of the same concentration was instilled again (twice in total). As a control, ultrapure water was used.
After 15 minutes from the second instillation of the solution of Compound C, a physiological saline solution in which a platelet activating factor was dissolved at 0.1% (w/v) was instilled into both eyes of the above guinea pigs in an amount of 10 μl per eye to induce eye scratching behavior.
The behavior of the guinea pigs after the instillation of the platelet activating factor was videotaped, and the ocular pruritus was evaluated for each eye by counting the number of times of a series of behaviors of scratching the eye with the hind paws. In Table 2, the average of the number of eye scratching times for 30 minutes after the instillation of the platelet activating factor and the average of the eye scratching behavior inhibition ratio are shown. Each group consisted of 8 eyes.

Compound	number of eye scratching times in comparison with the control (in words) [1]	Eye scratching behavior inhibition ratio [1] [%]	Number of eye scratching times [1] [times]	Eye scratching behavior inhibition ratio ([2]; 0.01% (w/v) instilled twice) [%]	Number of eye scratching times ([2]; 0.01% (w/v) instilled twice) [times]	Eye scratching behavior inhibition ratio ([2]; 0.1% (w/v) instilled twice) [%]	Number of eye scratching times ([2]; 0.1% (w/v) instilled twice) [times]	number of eye scratching times in comparison with the control (in words) ([2]; platelet activating factor-induced guinea pig model, instilled at 0.01% or 0.1%)
Cl.Oc1ccc(-c2nc(-c3ccc(F)cc3)c(-c3ccncc3)[nH]2)cc1 [Compound A, 4-(4-fluorophenyl)-2-(4-hydroxyphenyl)-5-(4-pyridyl)-1H-imidazole hydrochloride]	significantly decreased	77.0	1.4	–	–	–	–	–
COc1nccc(-c2c(-c3ccc(F)cc3)ncn2[C@H]2CC[C@H](O)CC2)n1 [Compound B, trans-4-[4-(4-fluorophenyl)-5-(2-methoxy-4-pyrimidinyl)-1H-imidazole-1-yl]cyclohexanol]	significantly decreased	36.1	3.9	–	–	–	–	–
C[S+]([O-])c1ccc(-c2nc(-c3ccc(F)cc3)c(-c3ccncc3)[nH]2)cc1.Cl (centres unmarked) [Compound C, 4-(4-fluorophenyl)-2-(4-methylsulfinylphenyl)-5-(4-pyridyl)-1H-imidazole hydrochloride]	–	–	–	87.3	0.9	85.9	1.0	significantly decreased
